Laboratory results taken from US20210000894A1, “Anti-Stress Composition” (MORINAGA MILK INDUSTRY CO., LTD., priority 2018, published 2021).

Test system: social defeat stress-bearing C57BL/6J mice
Experiment: Social defeat stress: escape time (time taken to be bitten 20 times by the male ICR mouse)
Type: in vivo
Details: for escape time, average value: C57BL/6J mice, L. helveticus as living cells orally once a day
Description: In the present experiment, an experiment of causing a small mouse to experience social defeat by allowing the small mouse to be bitten many times by a large mouse was carried out, and an effect of Lactobacillus helveticus on behavioral changes caused by social defeat stress (decrease in escape behavior, a lethargic state) was investigated. In the present experiment, C57BL/6J mice were used as social defeat stress-bearing mice. In a cage of male and female ICR mice cohabiting for three weeks or longer, only the male parent was left. A C57BL/6J mouse was brought into that cage, and the time taken by the C57BL/6J mouse to be bitten 20 times by the male parent mouse (escape time) was measured. As the escape time increases, it is implied that the C57BL/6J mouse attempts to escape from the ICR mouse, and therefore, it was determined that the social defeat stress is reduced. From two days before the beginning of giving social defeat stress until the end of the behavioral test, the experiment was carried out respectively for mice to which milnacipran was administered (Toledomin tablets; manufactured by Janssen Pharmaceutical K.K.) (positive control), mice to which nothing was administered (vehicle control), and mice to which living bacterial cells of Lactobacillus helveticus NITE BP-01671 were orally administered once a day using a sonde needle.

Structure (SMILES): CCN(CC)C(=O)C1(c2ccccc2)CC1CN (stereo not shown) [milnacipran]
- escape time compared to the vehicle control (in words) (C57BL/6J mice under social defeat stress, summary of Table 1): increased significantly compared to the vehicle control
- escape time, average value (Day 1, administered from two days before stress): 24.6 s
- escape time, average value (Day 2): 42.9 s
- escape time, average value (Day 3): 65.9 s
- escape time, average value (Day 4): 63.2 s
- escape time, average value (Day 5): 81.0 s
- escape time, average value (Day 8): 114.8 s
- escape time, average value (Day 9): 159.0 s
- escape time, average value (Day 10): 183.2 s
- escape time, average value (Day 11): 183.9 s
- escape time, average value (Day 12): 143.2 s
- escape time, average value (Day 15): 68.7 s
- escape time, average value (Day 16): 46.9 s
